Source: US20160158200A1, “Combinations of Hepatitis C Virus Inhibitors” (priority 2013, published 2016)

System: HCV genotype-1a variant with glutamine 30 changed to glutamate in the NS5A protein
Type: cell-based
Details: test compound titrated with BMS-790052 fixed at 200 nM; genotype 1a Q30E replicon
Outline: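 Synergy was assessed by combining several fixed amounts of an NS5A-targeting compound with a titration of the second compound of interest.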

Row | SMILES | Fold-Synergistic 1a (Q30E) [fold]
1 | CC(C)(C)C(=O)N[C@H](c1nc(-c2ccc(-c3ccc(-c4c[nH]c([C@@H](NC(=O)C(C)(C)C)C(C)(C)C)n4)cc3)cc2)c[nH]1)C(C)(C)C [Compound N-46] | >100
2 | CC(C)(C)[C@H](NC(=O)C1CCC(F)(F)CC1)c1nc(-c2ccc(-c3ccc(-c4c[nH]c([C@@H](NC(=O)C5CCC(F)(F)CC5)C(C)(C)C)n4)cc3)cc2)c[nH]1 [Compound N-47] | >100
3 | CC(C)(C)[C@H](NC(=O)Cc1ccccc1F)c1nc(-c2ccc(-c3ccc(-c4c[nH]c([C@@H](NC(=O)Cc5ccccc5F)C(C)(C)C)n4)cc3)cc2)c[nH]1 [Compound N-48] | >100
4 | CC(C)(C)[C@H](NC(=O)Cc1ccc(F)cc1)c1nc(-c2ccc(-c3ccc(-c4c[nH]c([C@@H](NC(=O)Cc5ccc(F)cc5)C(C)(C)C)n4)cc3)cc2)c[nH]1 [Compound N-49] | >100
5 | CC(C)(C)[C@H](NC(=O)CC1CCCCC1)c1nc(-c2ccc(-c3ccc(-c4c[nH]c([C@@H](NC(=O)CC5CCCCC5)C(C)(C)C)n4)cc3)cc2)c[nH]1 [Compound N-50] | >100
6 | CC(C)(C)[C@H](NC(=O)c1ccc(F)c(F)c1)c1nc(-c2ccc(-c3ccc(-c4c[nH]c([C@@H](NC(=O)c5ccc(F)c(F)c5)C(C)(C)C)n4)cc3)cc2)c[nH]1 [Compound N-51] | >100
7 | CC(C)(C)[C@H](NC(=O)C1(C(F)(F)F)CCCC1)c1nc(-c2ccc(-c3ccc(-c4c[nH]c([C@@H](NC(=O)C5(C(F)(F)F)CCCC5)C(C)(C)C)n4)cc3)cc2)c[nH]1 [Compound N-52] | >100
8 | CC(C)(C)[C@H](NC(=O)c1ccc(Cl)cn1)c1nc(-c2ccc(-c3ccc(-c4c[nH]c([C@@H](NC(=O)c5ccc(Cl)cn5)C(C)(C)C)n4)cc3)cc2)c[nH]1 [Compound N-53] | >100
9 | COc1ccc(C(=O)N[C@H](c2nc(-c3ccc(-c4ccc(-c5c[nH]c([C@@H](NC(=O)c6ccc(OC)cc6)C(C)(C)C)n5)cc4)cc3)c[nH]2)C(C)(C)C)cc1 [Compound N-54] | >100
10 | CC(C)(C)[C@H](NC(=O)C1C(C)(C)C1(C)C)c1nc(-c2ccc(-c3ccc(-c4c[nH]c([C@@H](NC(=O)C5C(C)(C)C5(C)C)C(C)(C)C)n4)cc3)cc2)c[nH]1 [Compound N-55] | >100
11 | CC(C)(C)[C@H](NC(=O)C1(c2ccc(Cl)cc2)CC1)c1nc(-c2ccc(-c3ccc(-c4c[nH]c([C@@H](NC(=O)C5(c6ccc(Cl)cc6)CC5)C(C)(C)C)n4)cc3)cc2)c[nH]1 [Compound N-56] | >100
12 | CC(C)(C)[C@H](NC(=O)C1(c2ccc(Cl)cc2)CCC1)c1nc(-c2ccc(-c3ccc(-c4c[nH]c([C@@H](NC(=O)C5(c6ccc(Cl)cc6)CCC5)C(C)(C)C)n4)cc3)cc2)c[nH]1 [Compound N-57] | >100
13 | CC(C)(C)CCC(=O)N[C@H](c1nc(-c2ccc(-c3ccc(-c4c[nH]c([C@@H](NC(=O)CCC(C)(C)C)C(C)(C)C)n4)cc3)cc2)c[nH]1)C(C)(C)C [Compound N-58] | >100
14 | COCC1(C(=O)N[C@H](c2nc(-c3ccc(-c4ccc(-c5c[nH]c([C@@H](NC(=O)C6(COC)CCC6)C(C)(C)C)n5)cc4)cc3)c[nH]2)C(C)(C)C)CCC1 [Compound N-59] | >100
15 | C[C@H](C(=O)N[C@H](c1nc(-c2ccc(-c3ccc(-c4c[nH]c([C@@H](NC(=O)[C@@H](C)c5ccccc5)C(C)(C)C)n4)cc3)cc2)c[nH]1)C(C)(C)C)c1ccccc1 [Compound N-60] | >100
16 | C[C@@H](C(=O)N[C@H](c1nc(-c2ccc(-c3ccc(-c4c[nH]c([C@@H](NC(=O)[C@H](C)c5ccccc5)C(C)(C)C)n4)cc3)cc2)c[nH]1)C(C)(C)C)c1ccccc1 [Compound N-61] | >100
17 | CC(C)(C)[C@H](NC(=O)CC12CC3CC(CC(C3)C1)C2)c1nc(-c2ccc(-c3ccc(-c4c[nH]c([C@@H](NC(=O)CC56CC7CC(CC(C7)C5)C6)C(C)(C)C)n4)cc3)cc2)c[nH]1 [Compound N-63] | >100
18 | Cc1ccc(C(=O)N[C@H](c2nc(-c3ccc(-c4ccc(-c5c[nH]c([C@@H](NC(=O)c6ccc(C)s6)C(C)(C)C)n5)cc4)cc3)c[nH]2)C(C)(C)C)s1 [Compound N-64] | >100
19 | CC(C)(C)[C@H](NC(=O)c1ccc(Cl)s1)c1nc(-c2ccc(-c3ccc(-c4c[nH]c([C@@H](NC(=O)c5ccc(Cl)s5)C(C)(C)C)n4)cc3)cc2)c[nH]1 [Compound N-65] | >100
20 | CC(C)(C)[C@H](NC(=O)c1c(F)cccc1Cl)c1nc(-c2ccc(-c3ccc(-c4c[nH]c([C@@H](NC(=O)c5c(F)cccc5Cl)C(C)(C)C)n4)cc3)cc2)c[nH]1 [Compound N-66] | >100
21 | CC(C)CC(=O)N[C@@H](c1nc(-c2ccc(-c3ccc(-c4c[nH]c([C@H](NC(=O)CC(C)C)C(C)(C)C)n4)cc3)cc2)c[nH]1)C(C)(C)C [Compound N-67] | >10

Row | SMILES | Fold-Synergistic 1a (Q30E) [fold]
22 | CC(C)[C@H](NC(=O)C(C)(C)C)c1nc(-c2ccc3c(c2)Cc2cc(-c4c[nH]c([C@@H](NC(=O)C(C)(C)C)C(C)C)n4)ccc2-3)c[nH]1 [Compound N-68] | >100
23 | CC(C)[C@H](NC(=O)C1(C)CCCCC1)c1ncc(-c2ccc3c(c2)Cc2cc(-c4cnc([C@@H](NC(=O)C5(C)CCCCC5)C(C)C)[nH]4)ccc2-3)[nH]1.O=C(O)C(F)(F)F [Compound N-69] | >100
24 | CC(C)[C@H](NC(=O)C1CCC(F)(F)CC1)c1ncc(-c2ccc3c(c2)Cc2cc(-c4cnc([C@@H](NC(=O)C5CCC(F)(F)CC5)C(C)C)[nH]4)ccc2-3)[nH]1.O=C(O)C(F)(F)F [Compound N-70] | >100
25 | CC(C)[C@H](NC(=O)C1CC(F)(F)C1)c1ncc(-c2ccc3c(c2)Cc2cc(-c4cnc([C@@H](NC(=O)C5CC(F)(F)C5)C(C)C)[nH]4)ccc2-3)[nH]1.O=C(O)C(F)(F)F [Compound N-71] | >100
26 | CC(C)[C@H](NC(=O)C1(C)CCCC1)c1ncc(-c2ccc3c(c2)Cc2cc(-c4cnc([C@@H](NC(=O)C5(C)CCCC5)C(C)C)[nH]4)ccc2-3)[nH]1.O=C(O)C(F)(F)F [Compound N-72] | >100
27 | CC(C)[C@H](NC(=O)c1cc(Cl)ccc1F)c1ncc(-c2ccc3c(c2)Cc2cc(-c4cnc([C@@H](NC(=O)c5cc(Cl)ccc5F)C(C)C)[nH]4)ccc2-3)[nH]1.O=C(O)C(F)(F)F [Compound N-73] | >100
28 | CC(C)[C@H](NC(=O)C(C)(C)C)c1nc(-c2ccc3c(c2)CCc2cc(-c4c[nH]c([C@@H](NC(=O)C(C)(C)C)C(C)C)n4)ccc2-3)c[nH]1 [Compound N-74] | >100
29 | CC(C)[C@H](NC(=O)C(C)(C)F)c1ncc(-c2ccc3c(c2)CCc2cc(-c4cnc([C@@H](NC(=O)C(C)(C)F)C(C)C)[nH]4)ccc2-3)[nH]1.O=C(O)C(F)(F)F [Compound N-75] | >100
30 | CC(C)[C@H](NC(=O)c1cc(Cl)ccc1F)c1nc(-c2ccc3c(c2)CCc2cc(-c4c[nH]c([C@@H](NC(=O)c5cc(Cl)ccc5F)C(C)C)n4)ccc2-3)c[nH]1.O=C(O)C(F)(F)F [Compound N-76] | >100
31 | Cc1cc(-c2ccc(-c3c[nH]c([C@@H](NC(=O)C(C)(C)C)C(C)C)n3)cc2)ccc1-c1c[nH]c([C@@H](NC(=O)C(C)(C)C)C(C)C)n1 [Compound N-77] | >100
32 | Cc1cc(-c2ccc(-c3c[nH]c([C@@H](NC(=O)C4CC(F)(F)C4)C(C)C)n3)cc2)ccc1-c1c[nH]c([C@@H](NC(=O)C2CC(F)(F)C2)C(C)C)n1.O=C(O)C(F)(F)F [Compound N-78] | >100
33 | Cc1cc(-c2ccc(-c3c[nH]c([C@@H](NC(=O)C4(C)CCCCC4)C(C)C)n3)cc2)ccc1-c1c[nH]c([C@@H](NC(=O)C2(C)CCCCC2)C(C)C)n1.O=C(O)C(F)(F)F [Compound N-79] | >100
34 | Cc1cc(-c2ccc(-c3c[nH]c([C@@H](NC(=O)C4(C)CCCC4)C(C)C)n3)cc2)ccc1-c1c[nH]c([C@@H](NC(=O)C2(C)CCCC2)C(C)C)n1.O=C(O)C(F)(F)F [Compound N-80] | >100
35 | Cc1cc(-c2ccc(-c3c[nH]c([C@@H](NC(=O)c4c(F)cccc4Cl)C(C)C)n3)cc2)ccc1-c1c[nH]c([C@@H](NC(=O)c2c(F)cccc2Cl)C(C)C)n1.O=C(O)C(F)(F)F [Compound N-81] | >100
36 | Cc1cc(-c2ccc(-c3c[nH]c([C@@H](NC(=O)C4CCC(F)(F)CC4)C(C)C)n3)cc2)ccc1-c1c[nH]c([C@@H](NC(=O)C2CCC(F)(F)CC2)C(C)C)n1.O=C(O)C(F)(F)F [Compound N-82] | >100
37 | Cc1cc(-c2ccc(-c3c[nH]c([C@@H](NC(=O)c4ccc(Cl)s4)C(C)C)n3)cc2)ccc1-c1c[nH]c([C@@H](NC(=O)c2ccc(Cl)s2)C(C)C)n1.O=C(O)C(F)(F)F [Compound N-83] | >100
38 | Cc1cc(-c2ccc(-c3c[nH]c([C@@H](NC(=O)C4(C)CCC(F)(F)CC4)C(C)C)n3)cc2)ccc1-c1c[nH]c([C@@H](NC(=O)C2(C)CCC(F)(F)CC2)C(C)C)n1.O=C(O)C(F)(F)F [Compound N-84] | >100
39 | COC(C)(C)C(=O)N[C@H](c1nc(-c2ccc(-c3ccc(-c4c[nH]c([C@@H](NC(=O)C(C)(C)OC)C(C)(C)C)n4)c(C)c3)cc2)c[nH]1)C(C)(C)C.O=C(O)C(F)(F)F [Compound N-85] | >100
40 | Cc1cc(-c2ccc(-c3c[nH]c([C@@H](NC(=O)C(C)(C)C)C(C)(C)C)n3)cc2)ccc1-c1c[nH]c([C@@H](NC(=O)C(C)(C)C)C(C)(C)C)n1.O=C(O)C(F)(F)F [Compound N-86] | >100
41 | COC(C)(C)C(=O)N[C@H](c1nc(-c2ccc(-c3ccc(-c4c[nH]c([C@@H](NC(=O)C(C)(C)OC)C(C)C)n4)c(F)c3)cc2)c[nH]1)C(C)C.O=C(O)C(F)(F)F [Compound N-87] | >100
